In US20240158740A1, “CELL CLUSTER PRODUCTION METHOD” (National University Corporation Tokyo Medical and Dental …, priority 2021, published 2024):

Key:
Type in all cases: cell-based
[1] = system: Human iPS cells (625A4) colonies; assay: Differentiation marker analysis of cell cluster by immunocytostaining after Wnt signal-inhibiting culture step (Day 2); details: cell cluster of Day 2
Protocol: Human iPS cells (625A4; Center for iPS Cell Research and Application (CiRA), Kyoto University) were cultured at 37° C. for 6 to 7 days under 5% CO2 in AK02N (Ajinomoto Co., Inc.) (10 cm dish; 8 ml, 24-well plate; 0.5 ml) to form iPS cell colonies of 500 to 700 μm in diameter. The obtained colonies were cultured at 37° C. for 2 days under 5% CO2 in Essential 8 medium (Gibco) (10 cm dish; 8 ml, 24-well plate; 0.5 ml) supplemented with BMP4 (80 ng/ml), VEGF (80 ng/ml), and IWP-2 (2 μM) (Days 0 to 2).
iPS cell colonies were formed as a control in the same manner as in [1] and [2]. Then, the obtained colonies were cultured at 37° C. for 2 days under 5% CO2 in Essential 8 medium (Gibco) (10 cm dish; 8 ml, 24-well plate; 0.5 ml) supplemented with BMP4 (80 ng/ml) and VEGF (80 ng/ml) (Days 0 to 2).
After induction of differentiation in the step of Days 0 to 2 in [1] or [2], the medium was removed, and the cells were washed once with PBS(−) (Gibco). Then, 4% paraformaldehyde was added at a volume of 500 μl/24 wells to the cells and left at room temperature for 15 minutes. Then, the cells were washed three times with PBS(−) and preserved overnight at 4° C. Then, PROTEIN BLOCK SERUM-FREE blocking solution [DAKO, X909] was added at a volume of 500 μl/24 wells to the cells and left at room temperature for 60 minutes for blocking. Then, a primary antibody ( 1/100 Anti-GATA6 (Abcam plc, ab22600), 1/50 Anti-Brachyury T (R&D Systems, Inc., AF2085), 1/400 Anti-Sox2 (CST, 3579P2), 1/100 Anti-CDX2 (R&D Systems, Inc., MAB3665), and 1/50 Anti-AP-2a (Santa Cruz Biotechnology Inc., sc-12726)) against the target antigen was added to a 1% blocking solution in PBS(−). The primary antibody solution was added at a volume of 500 μl/24 wells and left standing at room temperature for 60 minutes or overnight at 4° C. Subsequently, the cells were washed three times with PBS(−). […] The processing of the obtained images and quantitative analysis were carried out using image analysis software “Fiji”.

[2] = system: Human iPS cells (625A4) derived cell population; assay: Differentiation marker analysis using flow cytometry (CD34, CD32; Day 8); details: cell cluster obtained with CHIR99021 2 μM (Days 0 to 2), further differentiated; cell population of Day 8; compared with control (−)
Protocol: Following the preparation of human yolk sac mesoderm cells in [1], the medium was replaced with Essential 6 medium (Gibco) (10 cm dish; 8 ml) supplemented with VEGF (80 ng/ml), FGF2 (25 ng/ml), SCF (50 ng/ml), and SB431542 (2 μM), and hemangioblasts were induced by further culture at 37° C. for 2 days under 5% CO2. Then, the medium was replaced with Stempro-34 SFM (Gibco) (10 cm dish; 8 ml) supplemented with VEGF (80 ng/ml), SCF (50 ng/ml), Flt-3L (50 ng/ml), IL-3 (50 ng/ml), IL-6 (50 ng/ml), and TPO (5 ng/ml), and the cells were cultured at 37° C. for 2 days under 5% CO2. Then, the medium was replaced with a medium of the composition described above except for VEGF, and CD34-positive and CD32-positive vitelline venous hemogenic endothelial cells were induced by culture at 37° C. for 2 days under 5% CO2. After induction of differentiation of vitelline venous hemogenic endothelial cells by the step of Days 6 to 8 in [4], the medium was removed, and the cells were washed twice with PBS(−) (Gibco). Then, TrypLE Express (Gibco) was added at a volume of 3 mL/dish and left at 37° C. for 15 minutes. Then, the cells were recovered into a 15 mL tube while dissociated by pipetting with P1000 micropipette. […] The differentiation markers were analyzed by BD LSRFortessa flow cytometry using the obtained antibody-stained cell suspension. Data obtained from flow cytometry was analyzed using FlowJo.

[3] = system: Human iPS cells (625A4) colonies; assay: Differentiation marker analysis of cell cluster by immunocytostaining after Wnt signal-activating culture step (Day 2)
Protocol: Human iPS cells (625A4; Center for iPS Cell Research and Application (CiRA), Kyoto University) were cultured at 37° C. for 6 to 7 days under 5% CO2 in AK02N (Ajinomoto Co., Inc.) (10 cm dish; 8 ml, 24-well plate; 0.5 ml) to form iPS cell colonies of 500 to 700 μm in diameter. The obtained colonies were cultured at 37° C. for 2 days under 5% CO2 in Essential 8 medium (Gibco) (10 cm dish; 8 ml, 24-well plate; 0.5 ml) supplemented with BMP4 (80 ng/ml), VEGF (80 ng/ml), and CHIR99021 (2 μM) (Days 0 to 2). iPS cell colonies were formed as a control in the same manner as in [1] and [2]. Then, the obtained colonies were cultured at 37° C. for 2 days under 5% CO2 in Essential 8 medium (Gibco) (10 cm dish; 8 ml, 24-well plate; 0.5 ml) supplemented with BMP4 (80 ng/ml) and VEGF (80 ng/ml) (Days 0 to 2). After induction of differentiation in the step of Days 0 to 2 in [1] or [2], the medium was removed, and the cells were washed once with PBS(−) (Gibco). Then, 4% paraformaldehyde was added at a volume of 500 μl/24 wells to the cells and left at room temperature for 15 minutes. Then, the cells were washed three times with PBS(−) and preserved overnight at 4° C. Then, PROTEIN BLOCK SERUM-FREE blocking solution [DAKO, X909] was added at a volume of 500 μl/24 wells to the cells and left at room temperature for 60 minutes for blocking. Then, a primary antibody ( 1/100 Anti-GATA6 (Abcam plc, ab22600), 1/50 Anti-Brachyury T (R&D Systems, Inc., AF2085), 1/400 Anti-Sox2 (CST, 3579P2), 1/100 Anti-CDX2 (R&D Systems, Inc., MAB3665), and 1/50 Anti-AP-2a (Santa Cruz Biotechnology Inc., sc-12726)) against the target antigen was added to a 1% blocking solution in PBS(−). The primary antibody solution was added at a volume of 500 μl/24 wells and left standing at room temperature for 60 minutes or overnight at 4° C. Subsequently, the cells were washed three times with PBS(−). […] The processing of the obtained images and quantitative analysis were carried out using image analysis software “Fiji”.

[4] = system: Human iPS cells (625A4) derived cell population; assay: Differentiation marker analysis of cell population by immunocytostaining (Brachyury, CD34; Day 6); details: cell cluster obtained with CHIR99021 2 μM (Days 0 to 2), further differentiated; cell population of Day 6
Protocol: Following the preparation of human yolk sac mesoderm cells in [1], the medium was replaced with Essential 6 medium (Gibco) (10 cm dish; 8 ml) supplemented with VEGF (80 ng/ml), FGF2 (25 ng/ml), SCF (50 ng/ml), and SB431542 (2 μM), and hemangioblasts were induced by further culture at 37° C. for 2 days under 5% CO2. Then, the medium was replaced with Stempro-34 SFM (Gibco) (10 cm dish; 8 ml) supplemented with VEGF (80 ng/ml), SCF (50 ng/ml), Flt-3L (50 ng/ml), IL-3 (50 ng/ml), IL-6 (50 ng/ml), and TPO (5 ng/ml), and the cells were cultured at 37° C. for 2 days under 5% CO2. Then, the medium was replaced with a medium of the composition described above except for VEGF, and CD34-positive and CD32-positive vitelline venous hemogenic endothelial cells were induced by culture at 37° C. for 2 days under 5% CO2. After induction of differentiation of the step of Days 4 to 6 in [4], immunocytostaining was performed by the same procedures as in [3] except that the primary antibody used was changed to 1/50 Anti-CD34 (Abcam plc, ab81289).

| Structure (SMILES) | GATA6-positive cells in an outer edge part of the cell cluster ([1]; 2 μM, Days 0 to 2, compared with +CHIR) | Enrichment of CDX2-positive and TFAP2A-positive AECs in the cell cluster ([1]; IWP-2 2 μM with BMP4 and VEGF in Essential 8, Days 0 to 2, compared with no addition (−)) | GATA6 status of the CDX2-positive region (+IWP-2) ([1]; IWP-2 2 μM, Days 0 to 2) | CD34-positive and CD32-positive vitelline venous hemogenic endothelial cells produced [2] | Enrichment of Brachyury-negative, GATA6-positive, and FOXF1-positive YSMCs in the cell cluster ([3]; CHIR99021 2 μM with BMP4 and VEGF in Essential 8, Days 0 to 2, cell cluster of Day 2, compared with no addition (−)) | Morphology of the cell cluster under an optical microscope versus cell cluster obtained by a conventional method ([3]; CHIR99021 2 μM, 2 days after the start of culture) | GATA6 status of the CDX2-negative region (+CHIR) ([3]; CHIR99021 2 μM, Days 0 to 2, cell cluster of Day 2) | Appearance of CD34-positive vascular endothelial progenitor cells from YSM region in the outer edge part [4] |
| --- | --- | --- | --- | --- | --- | --- | --- | --- |
| Cc1ccc2nc(NC(=O)CSc3nc4c(c(=O)n3-c3ccccc3)SCC4)sc2c1 [IWP-2] | small number of GATA6-positive cells | enriched | GATA6-negative | – | – | – | – | – |
| Cc1c[nH]c(-c2cnc(NCCNc3ccc(C#N)cn3)nc2-c2ccc(Cl)cc2Cl)n1 [CHIR99021] | – | – | – | more | enriched | differ morphologically | GATA6-positive | Rich CD34-positive vascular endothelial progenitor cells were confirmed to appear |
